Results: patent US5980899A, “Identification of peptides that stimulate hepatitis C virus specific cytotoxic T cells” (The United States of America as represented by the …, priority 1992, dated 1999)

Columns and labels:
[1] = system: 18Neo (BALB/c 3T3 fibroblast, H-2^d) target cells
T cells = assay: Response to P17 stimulation in a chronically infected chimpanzee; format: cell-based; settings: one chronically infected chimpanzee
HCV = settings: chronic HCV liver disease; cited from earlier work

Row | Compound | toxicity that might affect activity in CTL stimulation or utility in vivo [1] | cytotoxicity in response to stimulation (T cells) | patients who respond (HCV) | responders who relapse after treatment is stopped (HCV)
1 | CSCC[C@H](N)C(=O)N[C@@H](CO)C(=O)N[C@@H](Cc1ccc(O)cc1)C(=O)N[C@@H](CO)C(=O)N[C@@H](Cc1c[nH]c2ccccc12)C(=O)N[C@H](C(=O)NCC(=O)N[C@@H](C)C(=O)N[C@@H](CC(C)C)C(=O)N[C@H](C(=O)N[C@H](C(=O)N1CCC[C@H]1C(=O)N[C@@H](CS)C(=O)N[C@@H](C)C(=O)N[C@@H](C)C(=O)N[C@@H](CCC(=O)O)C(=O)O)[C@@H](C)O)C(C)C)[C@@H](C)O [P17, MSYSWTGALVTPCAAE] | did not show any toxicity | not cytotoxicity |  | 
2 | α-interferon |  |  | less than half | approximately 50%
